In ChEMBL document CHEMBL1201862, “PubChem BioAssay data set” (2004):
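In this assay, cells in 96-well plates receive the compound at five concentrations for 48 hours. Endpoints are linearly interpolated between the surrounding concentrations. The concentration for 50% growth inhibition is given as GI50.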 Calls of active or inactive are those of the source. Rule as the data show it: active = GI50 up to about 1.1 µM and inactive = higher.

Tests used:
Test in all cases: NCI anticancer screen, dose series, 48 h
[1] = tested on: RXF 393
[2] = tested on: U-251
[3] = tested on: UACC-257
[4] = tested on: CAKI-1
[5] = tested on: SK-OV-3
[6] = tested on: HOP-92
[7] = tested on: SF-539
[8] = tested on: OVCAR-5
[9] = tested on: A549
[10] = tested on: HCT-15
[11] = tested on: DMS-114
[12] = tested on: IGROV-1
[13] = tested on: RPMI-8226
[14] = tested on: DMS-273
[15] = tested on: TK-10
[16] = tested on: A498
[17] = tested on: HL-60

Compound | GI50 [1] | GI50 [2] | GI50 [3] | GI50 [4] | GI50 [5] | GI50 [6] | GI50 [7] | GI50 [8] | GI50 [9] | GI50 [10] [µM] | GI50 [11] | GI50 [12] | GI50 [13] | GI50 [14] | GI50 [15] | GI50 [16] | GI50 [17]
CCOc1ccc(OP2(=O)NC(=O)C=C(C)N2)cc1 (stereo unspecified) | > 100 µM (inactive) | > 100 µM (inactive) | > 100 µM (inactive) | > 100 µM (inactive) | > 100 µM (inactive) | > 100 µM (inactive) | > 100 µM (inactive) | > 100 µM (inactive) | > 100 µM (inactive) | > 100 | > 100 µM (inactive) | > 100 µM (inactive) | > 100 µM (inactive) | > 100 µM (inactive) | > 100 µM (inactive) | > 100 µM (inactive) | 37.8 µM (inactive)
O=c1oc2cc(O)ccc2c2[nH]c3cc(O)ccc3c12 | 20.6 µM (inactive) | 21.4 µM (inactive) | 35.2 µM (inactive) |  | 22.2 µM (inactive) | 32.1 µM (inactive) | 18.9 µM (inactive) |  | 42.7 µM (inactive) | 27 | 21.1 µM (inactive) | 23.1 µM (inactive) | 78 µM (inactive) | 21.6 µM (inactive) | 36.3 µM (inactive) | 36.1 µM (inactive) | 21.8 µM (inactive)
C[N+](C)(C)CC1CCCC(C[N+](C)(C)C)C1O (stereo unspecified) | > 100 µM (inactive) | > 100 µM (inactive) | > 100 µM (inactive) | > 100 µM (inactive) | > 100 µM (inactive) | > 100 µM (inactive) | > 100 µM (inactive) | > 100 µM (inactive) | > 100 µM (inactive) | > 100 | > 100 µM (inactive) | > 100 µM (inactive) | > 100 µM (inactive) | > 100 µM (inactive) | > 100 µM (inactive) | > 100 µM (inactive) | > 100 µM (inactive)
C[C@@]1(CBr)C[C@@](C)(/C=C/Cl)[C@@H](Cl)C[C@H]1Cl | 13.8 µM (inactive) | 14.2 µM (inactive) | 11.4 µM (inactive) | 17.3 µM (inactive) | 16 µM (inactive) | 13.6 µM (inactive) | 14.6 µM (inactive) | 13.5 µM (inactive) | 12.3 µM (inactive) |  | 12.7 µM (inactive) | 14.8 µM (inactive) |  | 10.8 µM (inactive) | 14.7 µM (inactive) | 16.9 µM (inactive) | 3.06 µM (inactive)
O=C(N/C(=C\c1c(O)ccc2ccccc12)c1nc2ccccc2[nH]1)c1ccccc1 | 22.1 µM (inactive) | 79.3 µM (inactive) | > 100 µM (inactive) | > 100 µM (inactive) | 86.3 µM (inactive) | > 100 µM (inactive) | 29.1 µM (inactive) | > 100 µM (inactive) | > 100 µM (inactive) | > 100 | > 100 µM (inactive) | > 100 µM (inactive) | > 100 µM (inactive) | > 100 µM (inactive) | > 100 µM (inactive) | 38.2 µM (inactive) | 
COC(=O)N/N=c1\cc(C(=O)Nc2ccc(C)c(C)c2)oc2cc(O)ccc12 | > 100 µM (inactive) | > 100 µM (inactive) | > 100 µM (inactive) | > 100 µM (inactive) | > 100 µM (inactive) | > 100 µM (inactive) | > 100 µM (inactive) | > 100 µM (inactive) | > 100 µM (inactive) | > 100 | > 100 µM (inactive) | > 100 µM (inactive) |  | > 100 µM (inactive) | > 100 µM (inactive) | > 100 µM (inactive) | > 100 µM (inactive)
COc1cc2c(cc1OC)C1(c3ccc(Cl)cc3)ON=C(c3ccccc3)N1CS2 (stereo unspecified) | 21.2 µM (inactive) | > 100 µM (inactive) | > 100 µM (inactive) | > 100 µM (inactive) | > 100 µM (inactive) | 44.8 µM (inactive) | > 100 µM (inactive) | > 100 µM (inactive) | > 100 µM (inactive) | > 100 | > 100 µM (inactive) | 38.7 µM (inactive) | 48.1 µM (inactive) | > 100 µM (inactive) | > 100 µM (inactive) | 83.2 µM (inactive) | 24.2 µM (inactive)
C/C(CC(=O)Nc1cccc(Cl)c1C)=N\N=C(N)N | > 100 µM (inactive) | > 100 µM (inactive) | > 100 µM (inactive) | > 100 µM (inactive) | > 100 µM (inactive) | > 100 µM (inactive) | > 100 µM (inactive) | > 100 µM (inactive) | > 100 µM (inactive) | > 100 | > 100 µM (inactive) | > 100 µM (inactive) | > 100 µM (inactive) | 97.1 µM (inactive) | > 100 µM (inactive) | > 100 µM (inactive) | > 100 µM (inactive)
NCP(=O)(O)OCC(=O)O | > 100 µM (inactive) | > 100 µM (inactive) | > 100 µM (inactive) | > 100 µM (inactive) | > 100 µM (inactive) | > 100 µM (inactive) | > 100 µM (inactive) | > 100 µM (inactive) | > 100 µM (inactive) | > 100 | > 100 µM (inactive) | > 100 µM (inactive) |  | > 100 µM (inactive) | > 100 µM (inactive) | > 100 µM (inactive) | > 100 µM (inactive)
CC(=O)O/N=C(Cl)/C(Cl)=N/OC(C)=O | > 100 µM (inactive) | > 100 µM (inactive) | > 100 µM (inactive) | > 100 µM (inactive) | > 100 µM (inactive) | > 100 µM (inactive) | > 100 µM (inactive) | > 100 µM (inactive) | > 100 µM (inactive) | > 100 | > 100 µM (inactive) | > 100 µM (inactive) | > 100 µM (inactive) | > 100 µM (inactive) | > 100 µM (inactive) | > 100 µM (inactive) | > 100 µM (inactive)
O=C1C(Cl)=C(Cl)C(=O)N1c1ccccc1Cl | 50.2 µM (inactive) | > 100 µM (inactive) | > 100 µM (inactive) | > 44.2 µM (inactive) | > 100 µM (inactive) | > 36.7 µM (inactive) | > 100 µM (inactive) | > 100 µM (inactive) | > 100 µM (inactive) | > 53.6 | > 95.1 µM (inactive) | > 100 µM (inactive) | > 54.1 µM (inactive) | > 100 µM (inactive) | > 100 µM (inactive) | > 100 µM (inactive) | 15.3 µM (inactive)
CCCC(=O)c1ccc2c(ccc(=O)n2C)c1 |  | > 100 µM (inactive) |  | 52.7 µM (inactive) | > 100 µM (inactive) | 46.2 µM (inactive) | > 100 µM (inactive) | > 100 µM (inactive) | > 100 µM (inactive) | > 100 | 31.6 µM (inactive) | > 100 µM (inactive) | > 100 µM (inactive) | 66.2 µM (inactive) | > 100 µM (inactive) | 83 µM (inactive) | > 100 µM (inactive)
C#CC1(O)CCC2[C@@H]3CCc4cc(Oc5nc(F)nc(-c6c7ccccc7c(SCC)n6CCC)n5)ccc4C3CC[C@@]21C (stereo partly specified) | 21.6 µM (inactive) | 54.6 µM (inactive) | > 100 µM (inactive) |  | > 100 µM (inactive) | > 100 µM (inactive) | 58.9 µM (inactive) | > 100 µM (inactive) | > 100 µM (inactive) | > 100 | 31.3 µM (inactive) | 94.6 µM (inactive) | 57.3 µM (inactive) | > 100 µM (inactive) | > 100 µM (inactive) | > 100 µM (inactive) | > 100 µM (inactive)
